Measurements reported in paper PMC11814485, “Screening of homing and tissue-penetrating peptides by microdialysis and in vivo phage display” (Life Science Alliance, 2025).

What was measured:
diabetic skin wounds = experiment: Homing of FAM-peptides to skin wounds in diabetic mice; assay type: in vivo, mouse (BKS(D)-Lepr^db/JOrlRj); settings: 1.5 mg/kg systemically, 150 min, day 7 wound, anti-FAM staining, one animal with two wounds per group
Source text: Next, we wanted to study the utility of the newly identified peptides as vehicles for targeting diabetic skin wounds. Compromised angiogenesis in diabetic wounds leads to deficient granulation tissue formation and poses an important hindrance to systemic drug delivery. BALB/cJRj and diabetic male BKS(D)-Lepr^db/JOrlRj mice were wounded and systemically dosed with fluorophore-labeled peptides 7 d after the skin wounding. For all tested peptides, we observed peptide accumulation in the granulation tissue where angiogenesis takes place (Fig S6).
Figure S6. Microdialysis-captured peptides home to skin wounds in diabetic mice. […] Full-thickness wounds 6 mm in diameter were cut in the back skin of 14-wk-old male diabetic mice. After 7 d, 1.5 mg/kg of each peptide or PBS was injected systemically. The CAR peptide was used as a control. The peptide circulated for 150 min before the vasculature was perfused. The wounds were fixed with 4% PFA in PBS, and microscopic sections were stained with anti-FAM and hematoxylin. (A) Images of entire wounds. (B) Magnifications of areas marked in (A) with anti-CD31 staining of the adjacent sections. (A, B) Scale bars are 500 μm for (A) and 125 μm for (B). Images are representative of one animal with two wounds in each group.
Male BALB/cJRj and diabetic male BKS(D)-Lepr^db/JOrlRj mice were used for the peptide homing experiment. The BALB/cJRj mice were 8 wk old and weighed 24–28 g. […]
After 24-h (or 4 h for eyeballs) fixation in 4% PFA, the tissues were rinsed in 70% EtOH and embedded in paraffin. To avoid autofluorescence, the peptides were detected by staining the sections with rabbit anti-FITC/-FAM (71-1900; Thermo Fisher Scientific, 1:400 BALB/cJRj and C57BL/6Rj or 1:100 BKS(D)-Lepr^db/JOrlRj) in Dako antibody diluent (Agilent) and Biocare Medical Rabbit on Rodent (RMR622H; Biocare Medical) with XM-Factor (XMF963C; Biocare Medical) as described previously ([Robinson et al, 2010]; [Urakami et al, 2011]; [Toba et al, 2014]; [Pemmari, et al, 2020b]). […]

CHO-K cells = experiment: Peptide internalization in vitro, confocal imaging, CHO-K cells; assay type: cell-based, Chinese hamster; settings: FAM-labeled peptide 20 μM, 3 h, 37°C, confocal fluorescence imaging, representative of three experiments
Protocol: Figure 1. Microdialysis-captured peptides penetrate the cell membrane. […] CHO-K cells were grown on chamber slides. […] The scale bar is 20 μm. Images are representative of three individual experiments.
Plain growth medium was used as a negative control.

In the case of “CDDYQQISC [FAM-labeled synthetic peptide …]”, the “homing to skin wounds in diabetic mice” value (diabetic skin wounds) is reported as “home and penetrate to the granulation tissue” and the “cellular uptake in CHO-K cells” value (CHO-K cells) is reported as “accumulate in the CHO-K cells”.
“CPKKHHLDC [FAM-labeled synthetic peptide …]” was tested, and the “homing to skin wounds in diabetic mice” value (diabetic skin wounds) was “home and penetrate to the granulation tissue” and the “cellular uptake in CHO-K cells” value (CHO-K cells) was “accumulate in the CHO-K cells”.
With “CYHDTYPNC [FAM-labeled synthetic peptide …]” the “homing to skin wounds in diabetic mice” value (diabetic skin wounds) was “home and penetrate to the granulation tissue” and the “cellular uptake in CHO-K cells” value (CHO-K cells) was “accumulate in the CHO-K cells”.
